Source: ChEMBL document CHEMBL1149582, “Synthesis of penaresidin derivatives and its biological activity” (Bioorg Med Chem, 2007)
Values after ≈ are worked out from the molar mass of the structure shown.

What was measured:
[1] = system: A549; experiment: Cytotoxicity against human A549 cells; type: functional, cell-based
[2] = Cytotoxicity against human […] cells; type: functional, cell-based
[3] = system: Micrococcus luteus; experiment: Antibacterial activity against Micrococcus luteus IFM 2066; type: functional
[4] = system: Escherichia coli; experiment: Antibacterial activity against Escherichia coli ATCC 25922; type: functional
[5] = system: Candida albicans; experiment: Antibacterial activity against Candida albicans ATCC 90028; type: functional
[6] = system: Bacillus subtilis; experiment: Antibacterial activity against Bacillus subtilis […]; type: functional
[7] = system: Cryptococcus neoformans; experiment: Antibacterial activity against Cryptococcus neoformans IFM 46914; type: functional
[8] = system: Aspergillus niger; experiment: Antibacterial activity against Aspergillus niger IFM 5368; type: functional
[9] = system: Staphylococcus aureus; experiment: Antibacterial activity against Staphylococcus aureus 209P; type: functional
[10] = system: L1210; experiment: Cytotoxicity against mouse L1210 cells; type: functional, cell-based
[11] = system: KB; experiment: Cytotoxicity against human KB cells; type: functional, cell-based

SMILES	IC50 [1]	IC50 [2]	MIC [3]	MIC [4]	MIC [5]	MIC [6]	MIC [7]	MIC [8]	MIC [9]	IC50 [10]	IC50 [11]
CCCCCCCCCCCCCC[C@@H]1N[C@H](CO)[C@@H]1O	> 2 µg/mL	> 2 µg/mL	> 16.7 µg/mL	> 16.7 µg/mL	> 16.7 µg/mL	> 16.7 µg/mL	> 16.7 µg/mL	> 16.7 µg/mL	> 16.7 µg/mL	7.5 µg/mL (≈ 25 µM)	> 10 µg/mL
CCCCCCCCCCCCCC[C@H]1N[C@@H](CO)[C@H]1O	1.38 µg/mL (≈ 4.61 µM)	1.65 µg/mL (≈ 5.51 µM)								> 10 µg/mL	> 10 µg/mL
CCCCCCCCCCCCCC[C@H]1N[C@@H](CO)[C@@H]1O	0.22 µg/mL (≈ 0.735 µM)	0.17 µg/mL (≈ 0.568 µM)	4.18 µg/mL (≈ 14 µM)	8.35 µg/mL (≈ 27.9 µM)	> 16.7 µg/mL	4.18 µg/mL (≈ 14 µM)	> 16.7 µg/mL	> 16.7 µg/mL	8.35 µg/mL (≈ 27.9 µM)	1.6 µg/mL (≈ 5.34 µM)	3.2 µg/mL (≈ 10.7 µM)
CC(C)CC[C@H](O)CCCCCCCCC[C@@H]1N[C@@H](CO)[C@@H]1O	> 2 µg/mL	> 2 µg/mL	> 16.7 µg/mL	> 16.7 µg/mL	> 16.7 µg/mL	> 16.7 µg/mL	> 16.7 µg/mL	> 16.7 µg/mL	> 16.7 µg/mL	2.9 µg/mL (≈ 8.8 µM)	> 10 µg/mL
CCCCCCCCCCCCCC[C@H]1N[C@H](CO)[C@H]1O	> 2 µg/mL	1.23 µg/mL (≈ 4.11 µM)	4.18 µg/mL (≈ 14 µM)	> 16.7 µg/mL	> 16.7 µg/mL	8.35 µg/mL (≈ 27.9 µM)	> 16.7 µg/mL	> 16.7 µg/mL	16.7 µg/mL (≈ 55.8 µM)	4.5 µg/mL (≈ 15 µM)	6 µg/mL (≈ 20 µM)
CCCCCCCCCCCCCC[C@@H]1N[C@H](CO)[C@H]1O	1.97 µg/mL (≈ 6.58 µM)	0.79 µg/mL (≈ 2.64 µM)	8.35 µg/mL (≈ 27.9 µM)	> 16.7 µg/mL	> 16.7 µg/mL	16.7 µg/mL (≈ 55.8 µM)	> 16.7 µg/mL	> 16.7 µg/mL	> 16.7 µg/mL	4.5 µg/mL (≈ 15 µM)	> 10 µg/mL
CCCCCCCCCCCCCC[C@@H]1N[C@@H](CO)[C@@H]1O	0.34 µg/mL (≈ 1.14 µM)	0.56 µg/mL (≈ 1.87 µM)	1.84 µg/mL (≈ 6.14 µM)	> 16.7 µg/mL	> 16.7 µg/mL	4.18 µg/mL (≈ 14 µM)	> 16.7 µg/mL	> 16.7 µg/mL	8.35 µg/mL (≈ 27.9 µM)	4.5 µg/mL (≈ 15 µM)	3.4 µg/mL (≈ 11.4 µM)
